Reference: patent publication US12583866B2, “Pyrido[2,3-b][1,4]oxazines or tetrahydropyrido[2,3-b][1,4]oxazepines as IAP antagonists” (BEIGENE, LTD., priority 2020, dated 2026)

Experiments:
[1] = biological target: T1, recombinant human cIAP1-BIR3 protein (Homo sapiens, UniProt Q13490); test: Recombinant human c-IAP1-BIR3 biochemical assay (HTRF, peptide displacement); conditions: 1.2 nM cIAP1-BIR3, 3 nM AbuRPF-K(5-Fam)-NH2 peptide, read-out: Protein binding IC50 (nM) c-IAP1
T1 construct: recombinant human cIAP1-BIR3 protein; purchased Reaction biology APT-11-370
Method in brief: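 HTRF peptide displacement: after 1 h compound pre-incubation (max 10 uM, 4-fold dilutions, 10 points) with 1.2 nM protein in HEPES pH 7.5 buffer, 3 nM 5-Fam-labelled AbuRPF-K peptide and Tb-anti-6His were each added for 1 h at room temperature. Inhibition taken from 520/490 nm ratio, fitted four-parameter logistic for IC50.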

[2] = biological target: T2, recombinant human XIAP-BIR3 protein (Homo sapiens, UniProt P98170); test: Recombinant human XIAP-BIR3 biochemical assay (HTRF, peptide displacement); conditions: 3.7 nM XIAP-BIR3, 7.6 nM AbuRPF-K(5-Fam)-NH2 peptide, read-out: Protein binding IC50 (nM) XIAP
T2 construct: recombinant human XIAP-BIR3 protein; purchased Reaction biology APT-11-374
Method in brief: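 HTRF peptide displacement with 7.6 nM 5-Fam-labelled AbuRPF peptide, anti-6His Tb donor and 3.7 nM recombinant XIAP-BIR3. Protein and compound (10-point, 4-fold from 10 µM) were preincubated 1 h RT in HEPES pH 7.5 buffer before each addition, each 1 h. IC50 by four-parameter fit of the 520/490 nm ratio.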

[3] = biological target: T3, recombinant human cIAP2-BIR3 protein (Homo sapiens, UniProt Q13489); test: Recombinant human c-IAP2-BIR3 biochemical assay (HTRF, peptide displacement); conditions: 3.7 nM cIAP2-BIR3, 3.7 nM AbuRPF-K(5-Fam)-NH2 peptide, read-out: Protein binding IC50 (nM) c-IAP2
T3 construct: recombinant human cIAP2-BIR3 protein; purchased Reaction biology APT-11-372
Method in brief: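 HTRF peptide-displacement readout (ex337, em520/490 ratio) after sequential 1 h room-temperature steps: compound with 3.7 nM protein, then 3.7 nM 5-Fam-labelled AbuRPF peptide, then Tb-cryptate anti-6His antibody. Buffer pH 7.5 HEPES with NaCl, Tween-20, DTT; 10-point 4-fold dilutions from 10 uM; four-parameter logistic IC50.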

T1 sequence (Q13490 253-363 limits assumed): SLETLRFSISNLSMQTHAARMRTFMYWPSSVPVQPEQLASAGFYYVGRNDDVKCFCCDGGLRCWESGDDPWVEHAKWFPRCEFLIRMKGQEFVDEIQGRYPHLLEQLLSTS
T3 sequence (Q13489 238-349 limits assumed): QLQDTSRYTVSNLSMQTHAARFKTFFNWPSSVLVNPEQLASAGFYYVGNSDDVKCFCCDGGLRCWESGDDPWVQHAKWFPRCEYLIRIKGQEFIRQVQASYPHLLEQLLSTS
T2 sequence (P98170 241-356 limits assumed): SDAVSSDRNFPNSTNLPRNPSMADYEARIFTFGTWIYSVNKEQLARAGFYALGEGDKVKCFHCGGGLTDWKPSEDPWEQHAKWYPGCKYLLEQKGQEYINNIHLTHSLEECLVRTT

Q: With `CNC(=O)c1nc2c(cc1Cc1ccc(F)cc1)N(C(=O)CN1C[C@@H](C)NC[C@@H]1CN1[C@H](C)COC[C@H]1C)[C@@H](C)CO2` [Example 68, (S)-1-(2-((2R,5R)-2-(((3R,5R)-3,5-dimethylmorpholino)methyl)-5-methylpiperazin-1-yl)acetyl)-7-(4-fluorobenzyl)-N,2-dimethyl-2,3-dihydro-1H-pyrido[2,3-b][1,4]oxazine-6-carboxamide] as the compound, how does the IC50 [1] read?
A: 0.23 nM

Q: What about the IC50 [2] of the same compound?
A: 5.5 nM

Q: What about the IC50 [3] of the same compound?
A: 0.41 nM

Q: How did the IC50 [1] turn out when `CC(C)NC(=O)c1nc2c(cc1Cc1ccc(F)cc1)N(C(=O)CN1C[C@@H](C)NC[C@@H]1CN1[C@H](C)COC[C@H]1C)[C@@H](C)CO2` [Example 69, (S)-1-(2-((2R,5R)-2-(((3R,5R)-3,5-dimethylmorpholino)methyl)-5-methylpiperazin-1-yl)acetyl)-7-(4-fluorobenzyl)-N-isopropyl-2-methyl-2,3-dihydro-1H-pyrido[2,3-b][1,4]oxazine-6-carboxamide] was run?
A: 0.16 nM

Q: What about the IC50 [2] of the same compound?
A: 3.7 nM

Q: What about the IC50 [3] of the same compound?
A: 0.37 nM

Q: Which results are given for `C[C@@H]1CN(CC(=O)N2c3cc(Cc4ccc(F)cc4)c(C(=O)NCC4CC4)nc3OC[C@@H]2C)[C@@H](CN2[C@H](C)COC[C@H]2C)CN1` [Example 70, (S)—N-(cyclopropylmethyl)-1-(2-((2R,5R)-2-(((3R,5R)-3,5-dimethylmorpholino)methyl)-5-methylpiperazin-1-yl)acetyl)-7-(4-fluorobenzyl)-2-methyl-2,3-dihydro-1H-pyrido[2,3-b][1,4]oxazine-6-carboxamide]?
A: IC50 [1]: 0.16 nM; IC50 [2]: 1.9 nM; IC50 [3]: 0.27 nM

Q: What does the source list for `C[C@@H]1CN(CC(=O)N2c3cc(Cc4ccc(F)cc4)c(C(=O)Nc4ccc(F)cc4)nc3OC[C@@H]2C)[C@@H](CN2[C@H](C)COC[C@H]2C)CN1` [Example 71, (S)-1-(2-((2R,5R)-2-(((3R,5R)-3,5-dimethylmorpholino)methyl)-5-methylpiperazin-1-yl)acetyl)-7-(4-fluorobenzyl)-N-(4-fluorophenyl)-2-methyl-2,3-dihydro-1H-pyrido[2,3-b][1,4]oxazine-6-carboxamide]?
A: IC50 [1]: 0.26 nM; IC50 [2]: 7.9 nM; IC50 [3]: 0.57 nM

Q: What does the source list for `C[C@@H]1CN(CC(=O)N2c3cc(Cc4ccc(F)cc4)c(C(=O)N4CCOCC4)nc3OC[C@@H]2C)[C@@H](CN2[C@H](C)COC[C@H]2C)CN1` [Example 72, 2-((2R,5R)-2-(((3R,5R)-3,5-dimethylmorpholino)methyl)-5-methylpiperazin-1-yl)-1-((S)-7-(4-fluorobenzyl)-2-methyl-6-(morpholine-4-carbonyl)-2,3-dihydro-1H-pyrido[2,3-b][1,4]oxazin-1-yl)ethan-1-one]?
A: IC50 [1]: 0.35 nM; IC50 [2]: 7.6 nM; IC50 [3]: 0.42 nM

Q: Which results are given for `C[C@@H]1CN(CC(=O)N2c3cc(Cc4ccc(F)cc4)c(C(=O)NCCO)nc3OC[C@@H]2C)[C@@H](CN2[C@H](C)COC[C@H]2C)CN1` [Example 73, (S)-1-(2-((2R,5R)-2-(((3R,5R)-3,5-dimethylmorpholino)methyl)-5-methylpiperazin-1-yl)acetyl)-7-(4-fluorobenzyl)-N-(2-hydroxyethyl)-2-methyl-2,3-dihydro-1H-pyrido[2,3-b][1,4]oxazine-6-carboxamide]?
A: IC50 [1]: 0.18 nM; IC50 [2]: 4.3 nM; IC50 [3]: 0.29 nM

Q: `C[C@@H]1CN(CC(=O)N2c3cc(Cc4ccc(F)cc4)c(C(=O)N4CC(O)C4)nc3OC[C@@H]2C)[C@@H](CN2[C@H](C)COC[C@H]2C)CN1` [Example 74, 2-((2R,5R)-2-(((3R,5R)-3,5-dimethylmorpholino)methyl)-5-methylpiperazin-1-yl)-1-((S)-7-(4-fluorobenzyl)-6-(3-hydroxyazetidine-1-carbonyl)-2-methyl-2,3-dihydro-1H-pyrido[2,3-b][1,4]oxazin-1-yl)ethan-1-one] was tested. Which IC50 [1] did it give?
A: 0.25 nM

Q: And the IC50 [2]?
A: 11 nM

Q: What about the IC50 [3] of the same compound?
A: 0.51 nM

Q: What does the source list for `C[C@@H]1CN(CC(=O)N2c3cc(Cc4ccc(F)cc4)c(C(=O)NCCN4CCOCC4)nc3OC[C@@H]2C)C(CN2[C@H](C)COC[C@H]2C)CN1` (stereo partly drawn) [Example 75, (5)-1-(2-((2R,5R)-2-(((3R,5R)-3,5-dimethylmorpholino)methyl)-5-methylpiperazin-1-yl)acetyl)-7-(4-fluorobenzyl)-2-methyl-N-(2-morpholinoethyl)-2,3-dihydro-1H-pyrido[2,3-b][1,4]oxazine-6-carboxamide]?
A: IC50 [1]: 0.2 nM; IC50 [2]: 6.5 nM; IC50 [3]: 0.54 nM

Q: For `C[C@@H]1CN(CC(=O)N2c3cc(Cc4ccc(F)cc4)c(C(=O)NC4CCOCC4)nc3OC[C@@H]2C)[C@@H](CN2[C@H](C)COC[C@H]2C)CN1` [Example 76, (S)-1-(2-((2R,5R)-2-(((3R,5R)-3,5-dimethylmorpholino)methyl)-5-methylpiperazin-1-yl)acetyl)-7-(4-fluorobenzyl)-2-methyl-N-(tetrahydro-2H-pyran-4-yl)-2,3-dihydro-1H-pyrido[2,3-b][1,4]oxazine-6-carboxamide], which IC50 [1] is on record?
A: 0.15 nM

Q: What about the IC50 [2] of the same compound?
A: 4.4 nM

Q: And the IC50 [3]?
A: 0.28 nM

Q: Which results are given for `C[C@@H]1CN(CC(=O)N2c3cc(Cc4ccc(F)cc4)c(C(=O)NCC4CCOCC4)nc3OC[C@@H]2C)[C@@H](CN2[C@H](C)COC[C@H]2C)CN1` [Example 77, (S)-1-(2-((2R,5R)-2-(((3R,5R)-3,5-dimethylmorpholino)methyl)-5-methylpiperazin-1-yl)acetyl)-7-(4-fluorobenzyl)-2-methyl-N-((tetrahydro-2H-pyran-4-yl)methyl)-2,3-dihydro-1H-pyrido[2,3-b][1,4]oxazine-6-carboxamide]?
A: IC50 [1]: 0.2 nM; IC50 [2]: 2.6 nM; IC50 [3]: 0.28 nM

Q: Which IC50 [1] does the source give for `C[C@@H]1CN(CC(=O)N2c3cc(Cc4ccc(F)cc4)c(C(=O)N[C@@H]4CCOC4)nc3OC[C@@H]2C)[C@@H](CN2[C@H](C)COC[C@H]2C)CN1` [Example 78, (S)-1-(2-((2R,5R)-2-(((3R,5R)-3,5-dimethylmorpholino)methyl)-5-methylpiperazin-1-yl)acetyl)-7-(4-fluorobenzyl)-2-methyl-N—((R)-tetrahydrofuran-3-yl)-2,3-dihydro-1H-pyrido[2,3-b][1,4]oxazine-6-carboxamide] here?
A: 0.17 nM

Q: What about the IC50 [2] of the same compound?
A: 3.2 nM

Q: And the IC50 [3]?
A: 0.31 nM

Q: With `C[C@@H]1CN(CC(=O)N2c3cc(Cc4ccc(F)cc4)c(C(=O)N[C@H]4CCOC4)nc3OC[C@@H]2C)[C@@H](CN2[C@H](C)COC[C@H]2C)CN1` [Example 79, (S)-1-(2-((2R,5R)-2-(((3R,5R)-3,5-dimethylmorpholino)methyl)-5-methylpiperazin-1-yl)acetyl)-7-(4-fluorobenzyl)-2-methyl-N—((S)-tetrahydrofuran-3-yl)-2,3-dihydro-1H-pyrido[2,3-b][1,4]oxazine-6-carboxamide] as the compound, how does the IC50 [1] read?
A: 0.19 nM

Q: And the IC50 [2]?
A: 5.2 nM

Q: What about the IC50 [3] of the same compound?
A: 0.33 nM

Q: `C[C@@H]1CN(CC(=O)N2c3cc(Cc4ccc(F)cc4)c(C(=O)N(C)C)nc3OC[C@@H]2C)[C@@H](CN2[C@H](C)COC[C@H]2C)CN1` [Example 80, (S)-1-(2-((2R,5R)-2-(((3R,5R)-3,5-dimethylmorpholino)methyl)-5-methylpiperazin-1-yl)acetyl)-7-(4-fluorobenzyl)-N,N,2-trimethyl-2,3-dihydro-1H-pyrido[2,3-b][1,4]oxazine-6-carboxamide] was tested. Which IC50 [1] did it give?
A: 0.22 nM

Q: What about the IC50 [2] of the same compound?
A: 4.9 nM

Q: And the IC50 [3]?
A: 0.3 nM

Q: With `C[C@@H]1CN(CC(=O)N2c3cc(Cc4ccc(F)cc4)c(O)nc3OC[C@@H]2C)[C@@H](CN2[C@H](C)COC[C@H]2C)CN1` [Example 81] as the compound, how does the IC50 [1] read?
A: 0.18 nM

Q: What about the IC50 [2] of the same compound?
A: 2.9 nM

Q: What about the IC50 [3] of the same compound?
A: 0.42 nM

Q: For `C[C@@H]1CN(CC(=O)N2c3cc(Cc4ccc(F)cc4)c(C(N)=O)nc3OC[C@@H]2C)[C@@H](CN2CCOC[C@H]2C(F)F)CN1` [Example 82], which IC50 [1] is on record?
A: 0.54 nM

Q: What about the IC50 [2] of the same compound?
A: 10 nM

Q: And the IC50 [3]?
A: 0.73 nM

Q: Which IC50 [1] does the source give for `C[C@@H]1CN(CC(=O)N2c3cc(Cc4ccc(F)cc4F)c(C(N)=O)nc3OC[C@@H]2C)[C@@H](CN2[C@H](C)COC[C@H]2C)CN1` [Example 83, (S)-7-(2,4-difluorobenzyl)-1-(2-((2R,5R)-2-(((3R,5R)-3,5-dimethylmorpholino)methyl)-5-methylpiperazin-1-yl)acetyl)-2-methyl-2,3-dihydro-1H-pyrido[2,3-b][1,4]oxazine-6-carboxamide] here?
A: 0.2 nM

Q: And the IC50 [2]?
A: 7.2 nM

Q: And the IC50 [3]?
A: 0.4 nM

Q: `C[C@@H]1CN(CC(=O)N2c3cc(Cc4ccc(F)cc4)c(CO)nc3OC[C@@H]2C)[C@@H](CN2CCOC[C@H]2C2CC2)CN1` [Example 84A, 2-((2R,5R)-2-(((R)-3-cyclopropylmorpholino)methyl)-5-methylpiperazin-1-yl)-1-((S)-7-(4-fluorobenzyl)-6-(hydroxymethyl)-2-methyl-2,3-dihydro-1H-pyrido[2,3-b][1,4]oxazin-1-yl)ethan-1-one] was tested. Which IC50 [1] did it give?
A: 0.29 nM

Q: What about the IC50 [2] of the same compound?
A: 6.4 nM

Q: What about the IC50 [3] of the same compound?
A: 0.44 nM

Q: With `C[C@@H]1CN(CC(=O)N2c3cc(Cc4ccc(F)cc4)c(CO)nc3OC[C@@H]2C)[C@@H](CN2CCOC[C@@H]2C2CC2)CN1` [Example 84B] as the compound, how does the IC50 [1] read?
A: 0.78 nM

Q: And the IC50 [2]?
A: 46 nM

Q: And the IC50 [3]?
A: 1.6 nM
